Experimental data taken from patent US20080175800A1, “USE OF SPECIFIC MENTHYL 3-OXOCARBOXYLIC ACID ESTERS AS PHYSIOLOGICALLY ACTIVE COOLING SUBSTANCES” (SYMRISE GmbH & Co. KG, priority 2007, published 2008).

Legend:
[1] = Sensory evaluation in confectioner's fondant by a panel of experts (cooling action); format: in vivo; conditions: 0.05 wt. % in confectioner's fondant; for cooling action: scale from 1 (no cooling action) to 9 (extremely strong cooling action)
Method: The compounds from Examples 1 and 2 were tested for their sensory properties, in particular their cooling action. To this end, they were dissolved, in each case in a specific final concentration, in a mass prepared from sucrose (saccharose) and water (confectioner's fondant, supplier Nordzucker AG, Nordstemmen) and evaluated by a panel of experts. Sensory impressions were rated and the cooling action was assessed on a scale from 1 (no cooling action) to 9 (extremely strong cooling action).

[2] = Skin-cooling characteristics, application site forearm; format: in vivo; conditions: forearm of human test subjects; compared with L-menthyl lactate (Frescolat ML)

Compound	cooling action [1]	skin intensity of cooling [2]	onset and duration of cooling action ([1]; compared with Example 1)
CC(=O)CC(=O)O[C@@H]1C[C@H](C)CC[C@H]1C(C)C [Example 1, (L)-menthyl 3-oxo-butyrate]	5-6	overall weaker intensity of cooling	
CCC(=O)CC(=O)O[C@@H]1C[C@H](C)CC[C@H]1C(C)C [Example 2, (L)-menthyl 3-oxo-pentanoate]	5-6	overall weaker intensity of cooling	slower onset but longer lasting than Example 1
